What all share (assay type): in vivo
The test system of test [1] is Beet Armyworm (Spodoptera exigua, LAPHEG). In words: Bioassay on Beet Armyworm (BAW), 128-well diet tray assay. In short, it runs like this: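 Artificial diet surface-treated with 50 μg/cm^2 test molecule in 90:10 acetone-water, dried, then infested with one to five second instar larvae per well. Held covered and vented at 25° C., 14:10 light-dark for five to seven days; percent mortality recorded per well and averaged over eight wells.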

The test system of test [2] is Yellow Fever Mosquito (Aedes aegypti, AEDSAE). Kind of test: Bioassay on Yellow Fever Mosquito (YFM), 96-well plate larval assay. Particulars: for YFM rating: Yellow Fever Mosquito, 96-well plate larval assay; for YFM (Biological Results, rating): Species YFM (Yellow Fever Mosquito). In short, it runs like this:
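Each well was scored for mortality after 3 days at room temperature under a non-evaporative lid. Test molecules came from DMSO masters (4000 ppm stock) diluted with water/acetone 90:10 and dispensed into six replicate plates, which were then infested with roughly 1-day-old larvae in liver-powder water.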

For test [3], the system named is Cabbage Looper (Trichoplusia ni, TRIPNI). In words: Bioassay on Cabbage Looper (CL), 128-well diet tray assay. The note with it: Trichoplusia ni. In short, it runs like this: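 Percent mortality, averaged across eight replicate wells, was scored after five to seven days at 25° C. under a 14:10 light-dark cycle. Each well held one to five second instar larvae on artificial diet treated at 50 μg/cm^2 with compound from 90:10 acetone-water, allowed to dry before infestation.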

The mark [4] stands for this setting: Beet Armyworm, 128-well diet tray assay, read-out: BAW rating.
Where [5] appears, read: Cabbage Looper, 128-well diet tray assay, read-out: CL rating.
Where [6] appears, read: Species BAW (Beet Armyworm), read-out: BAW (Biological Results, rating).
The mark [7] stands for this setting: Species CL (Cabbage Looper), read-out: CL (Biological Results, rating).

Read-outs that look alike come from different tables or passages of the source.

For the molecule `O=C(Nc1ncc(F)cc1F)c1cc(NC(=O)[C@H]2[C@H](c3cc(F)cc(C(F)F)c3)C2(Cl)Cl)ccc1Cl` (relative stereo) [F586, 2-Chloro-5-(trans-2,2-dichloro-3-(3-(difluoromethyl)-5-fluorophenyl)cyclopropane-1-carboxamido)-N-(3,5-difluoropyridin-2-yl)benzamide], the pest or weed control at 50 µg/cm2 in test [1] (setting [4]) and in test [3] (setting [5]) was 50 to 100% each time. Also, the YFM rating result in test [2] is “A (80-100)”.
With `O=C(Nc1ccc(F)cc1)c1cc(NC(=O)[C@H]2[C@H](c3ccc(Cl)c(Cl)c3)C2(Cl)Cl)ccc1Cl` [F209, 2-Chloro-5-((1R,3R)-2,2-dichloro-3-(3,4-dichlorophenyl)cyclopropane-1-carboxamido)-N-(4-fluorophenyl)benzamide], the pest or weed control at 50 µg/cm2 in test [1] (setting [6]) and in test [3] (setting [7]) was 50 to 100% each time. The “YFM (Biological Results, rating)” value in test [2] is “A (80-100)”.
For the molecule `C#Cc1cc([C@H]2[C@H](C(=O)Nc3ccc(Cl)c(C(=O)Nc4ccc(F)cc4)c3)C2(Cl)Cl)ccc1Cl` (relative stereo) [F410, 2-Chloro-5-(trans-2,2-dichloro-3-(4-chloro-3-ethynylphenyl)cyclopropane-1-carboxamido)-N-(4-fluorophenyl)benzamide], the pest or weed control at 50 µg/cm2 in test [1] (setting [4]) and in test [3] (setting [5]) was 50 to 100% throughout. The YFM rating entry in test [2] is given as “A (80-100)”.
As for `N#Cc1ccc(NC(=O)c2cc(NC(=O)[C@H]3[C@H](c4cc(Cl)cc(Cl)c4)C3(Cl)Cl)ccc2Cl)cc1C(F)(F)F` (relative stereo) [F235, 2-Chloro-N-(4-cyano-3-(trifluoromethyl)phenyl)-5-(trans-2,2-dichloro-3-(3,5-dichlorophenyl)cyclopropane-1-carboxamido)benzamide], the pest or weed control at 50 µg/cm2 in test [1] (setting [6]) and in test [3] (setting [7]) was 50 to 100% in each case. In addition, the “YFM (Biological Results, rating)” value in test [2] is on record as “A (80-100)”.
Consider `N#Cc1ccc2c(N)nn(C(=O)c3cc(NC(=O)[C@H]4[C@H](c5cc(Cl)cc(Cl)c5)C4(Cl)Cl)ccc3Cl)c2c1` (relative stereo) [F493, trans-N-(3-(3-Amino-6-cyano-1H-indazole-1-carbonyl)-4-chlorophenyl)-2,2-dichloro-3-(3,5-dichlorophenyl)cyclopropane-1-carboxamide], for which the pest or weed control at 50 µg/cm2 in test [1] (setting [4]) and in test [3] (setting [5]) was 50 to 100% each time. Moreover, the YFM rating result in test [2] is reported as “A (80-100)”.
Take `O=C(Nc1ccc(F)cc1F)c1cc(NC(=O)[C@H]2[C@H](c3cc(Cl)cc(Cl)c3)C2(Cl)Cl)ccc1Cl` [F185, 2-Chloro-5-((1R,3R)-2,2-dichloro-3-(3,5-dichlorophenyl)cyclopropane-1-carboxamido)-N-(2,4-difluorophenyl)benzamide]: the pest or weed control at 50 µg/cm2 in test [1] (setting [6]) and in test [3] (setting [7]) was 50 to 100% in each case. Also, the “YFM (Biological Results, rating)” value in test [2] is “B (More than 0-Less than 80)”.
`O=C(Nc1ccc(F)c(F)c1F)c1cc(NC(=O)[C@H]2[C@H](c3cc(Cl)cc(Cl)c3)C2(Cl)Cl)ccc1Cl` (relative stereo) [PF68, trans-2-Chloro-5-(2,2-dichloro-3-(3,5-dichlorophenyl)cyclopropane-1-carboxamido)-N-(2,3,4-trifluorophenyl)benzamide]: the pest or weed control at 50 µg/cm2 in test [1] (setting [4]) and in test [3] (setting [5]) was 50 to 100% each time. Besides, the YFM rating result in test [2] is on record as “A (80-100)”.
Turning to `CC(=O)Nc1cccc(NC(=O)c2cc(NC(=O)[C@H]3[C@H](c4cc(Cl)cc(Cl)c4)C3(Cl)Cl)ccc2Cl)n1` (relative stereo) [F494, N-(6-Acetamidopyridin-2-yl)-2-chloro-5-(trans-2,2-dichloro-3-(3,5-dichlorophenyl)cyclopropane-1-carboxamido)benzamide], the pest or weed control at 50 µg/cm2 in test [1] (setting [4]) and in test [3] (setting [5]) was 50 to 100% in each case. Further, the YFM rating entry in test [2] is listed as “A (80-100)”.
Take `Nc1c(F)cc(F)cc1NC(=O)c1cc(NC(=O)[C@H]2[C@H](c3ccc(F)c(Cl)c3)C2(Cl)Cl)ccc1Cl` [F420, N-(2-Amino-3,5-difluorophenyl)-2-chloro-5-((1R,3R)-2,2-dichloro-3-(3-chloro-4-fluorophenyl)cyclopropane-1-carboxamido)benzamide]: the pest or weed control at 50 µg/cm2 in test [1] (setting [4]) and in test [3] (setting [5]) was 50 to 100% in each case. Besides, the YFM rating result in test [2] is “A (80-100)”.
As for `COc1ccc(NC(=O)c2cc(NC(=O)[C@H]3[C@H](c4ccc(F)c(Cl)c4)C3(Cl)Cl)ccc2Cl)c(Cl)n1` (relative stereo) [F553, 2-Chloro-N-(2-chloro-6-methoxypyridin-3-yl)-5-(trans-2,2-dichloro-3-(3-chloro-4-fluorophenyl)cyclopropane-1-carboxamido)benzamide], the pest or weed control at 50 µg/cm2 in test [1] (setting [4]) and in test [3] (setting [5]) was 50 to 100% in each case. Moreover, the YFM rating entry in test [2] was “A (80-100)”.
Turning to `O=C(Nc1cc(F)ccc1F)c1cc(NC(=O)C2C(c3cc(Cl)cc(Cl)c3)C2(Cl)Cl)ccc1Cl` (stereo not drawn) [PF118, 2-Chloro-5-(trans)-2,2-dichloro-3-(3,5-dichlorophenyl)cyclopropane-1-carboxamido)-N-(2,5-difluorophenyl)benzamide], the pest or weed control at 50 µg/cm2 in test [1] (setting [4]) and in test [3] (setting [5]) was 50 to 100% each time. Besides, the YFM rating entry in test [2] was “B (More than 0-Less than 80)”.
Turning to `C/S(=N\C#N)c1ccc(NC(=O)c2cc(NC(=O)C3C(c4cc(Cl)cc(Cl)c4)C3(Cl)Cl)ccc2Cl)cc1` (stereo not drawn) [F495, trans-2-chloro-N-(4-(N-cyano-S-methylsulfinimidoyl)phenyl)-5-(2,2-dichloro-3-(3,5-dichlorophenyl)cyclopropane-1-carboxamido)benzamide], the pest or weed control at 50 µg/cm2 in test [1] (setting [4]) and in test [3] (setting [5]) was 50 to 100% each time. In addition, the YFM rating entry in test [2] is listed as “A (80-100)”.
With `Nc1c(F)ccc(NC(=O)c2cc(NC(=O)[C@H]3[C@H](c4cc(Cl)cc(Cl)c4)C3(Cl)Cl)ccc2Cl)c1F` (relative stereo) [F245, trans-N-(3-Amino-2,4-difluorophenyl)-2-chloro-5-(2,2-dichloro-3-(3,5-dichlorophenyl)cyclopropane-1-carboxamido)benzamide], the pest or weed control at 50 µg/cm2 in test [1] (setting [6]) and in test [3] (setting [7]) was 50 to 100% in each case. In addition, the “YFM (Biological Results, rating)” value in test [2] is “A (80-100)”.
With `O=C(Nc1ncc(F)cc1F)c1cc(NC(=O)[C@H]2[C@H](c3ccc(F)c(C(F)F)c3)C2(Cl)Cl)ccc1Cl` (relative stereo) [F587, 2-Chloro-5-(trans-2,2-dichloro-3-(3-(difluoromethyl)-4-fluorophenyl)cyclopropane-1-carboxamido)-N-(3,5-difluoropyridin-2-yl)benzamide], the pest or weed control at 50 µg/cm2 in test [1] (setting [4]) and in test [3] (setting [5]) was 50 to 100% throughout. Besides, in test [2], the YFM rating result is given as “A (80-100)”.
As to `O=C(Nc1ccc2c(ccn2CCF)c1)c1cc(NC(=O)[C@H]2[C@H](c3cc(Cl)cc(Cl)c3)C2(Cl)Cl)ccc1Cl` (relative stereo) [F496, 2-Chloro-5-(trans)-(2,2-dichloro-3-(3,5-dichlorophenyl)cyclopropane-1-carboxamido)-N-(1-(2-fluoroethyl)-1H-indol-5-yl)benzamide], the pest or weed control at 50 µg/cm2 in test [1] (setting [4]) and in test [3] (setting [5]) was 50 to 100% each time. For the same molecule, in test [2], the YFM rating result is listed as “A (80-100)”.

For the origin of these results see US10219516B2, “Molecules having pesticidal utility, and intermediates, compositions, and processes, related thereto” (priority 2015, dated 2019).
